Results as given in the NIST ThermoML archive (doi:10.1016/j.jct.2016.10.034).
Numbers after ± are expanded uncertainties.

Assay: xn = mol fraction of the nth substance listed
Conditions: 100 kPa, Liquid; for viscosity: Falling or rolling sphere viscometry; for mass density: Vibrating tube method

CC(=O)[O-].CC[N+]1(C)CCCC1 [1-ethyl-1-methylpyrrolidinium acetate] + O
Conditions | mass density [kg/m3] | viscosity [mPa·s]
298.15 K, x1 = 0.1008 | 1046.6 ± 1.1 | 6.95 ± 0.7
298.15 K, x1 = 0.2083 | 1066.7 ± 1 | 16.9 ± 1.7
298.15 K, x1 = 0.3171 | 1070.7 ± 1 | 29 ± 2.9
298.15 K, x1 = 0.4126 | 1070.8 ± 1.1 | 41.1 ± 4.1
298.15 K, x1 = 0.481 | 1070.2 ± 1.1 | 50.9 ± 5.1
298.15 K, x1 = 0.5857 | 1069.2 ± 1.2 | 69.3 ± 7
298.15 K, x1 = 0.6728 | 1068.1 ± 1.4 | 88.3 ± 9
298.15 K, x1 = 0.766 | 1066.9 ± 1.6 | 116 ± 12
298.15 K, x1 = 0.8963 | 1065.4 ± 1.9 | 173 ± 19
303.15 K, x1 = 0.1008 | 1043.6 ± 1 | 5.96 ± 0.6
303.15 K, x1 = 0.2083 | 1063.6 ± 1 | 14.2 ± 1.4
303.15 K, x1 = 0.3171 | 1067.6 ± 1 | 24.2 ± 2.4
303.15 K, x1 = 0.4126 | 1067.8 ± 1.1 | 34.5 ± 3.5
303.15 K, x1 = 0.481 | 1067.2 ± 1.1 | 42.8 ± 4.3
303.15 K, x1 = 0.5857 | 1066.3 ± 1.2 | 57.2 ± 5.8
303.15 K, x1 = 0.6728 | 1065.3 ± 1.4 | 71.4 ± 7.2
303.15 K, x1 = 0.766 | 1064 ± 1.6 | 91.3 ± 9.4
303.15 K, x1 = 0.8963 | 1062.5 ± 1.9 | 134 ± 14
308.15 K, x1 = 0.1008 | 1040.7 ± 1 | 5.32 ± 0.53
308.15 K, x1 = 0.2083 | 1060.3 ± 1 | 11.9 ± 1.2
308.15 K, x1 = 0.3171 | 1064.5 ± 1 | 19.7 ± 2
308.15 K, x1 = 0.4126 | 1064.8 ± 1.1 | 28 ± 2.8
308.15 K, x1 = 0.481 | 1064.2 ± 1.1 | 35.1 ± 3.5
308.15 K, x1 = 0.5857 | 1063.1 ± 1.2 | 46.7 ± 4.7
308.15 K, x1 = 0.6728 | 1062.2 ± 1.4 | 57.6 ± 5.8
308.15 K, x1 = 0.766 | 1060.7 ± 1.5 | 74.2 ± 7.5
308.15 K, x1 = 0.8963 | 1059.4 ± 1.9 | 107 ± 11
313.15 K, x1 = 0.1008 | 1037.7 ± 1 | 4.77 ± 0.48
313.15 K, x1 = 0.2083 | 1057.1 ± 1 | 10.6 ± 1.1
313.15 K, x1 = 0.3171 | 1061.4 ± 1 | 16.9 ± 1.7
313.15 K, x1 = 0.4126 | 1061.8 ± 1.1 | 23.5 ± 2.4
313.15 K, x1 = 0.481 | 1061.3 ± 1.1 | 28.9 ± 2.9
313.15 K, x1 = 0.5857 | 1060.4 ± 1.2 | 38.7 ± 3.9
313.15 K, x1 = 0.6728 | 1059.4 ± 1.4 | 48.5 ± 4.9
313.15 K, x1 = 0.766 | 1057.9 ± 1.5 | 62.8 ± 6.4
313.15 K, x1 = 0.8963 | 1056.6 ± 1.9 | 88.5 ± 9.1
318.15 K, x1 = 0.1008 | 1034.6 ± 1 | 4.3 ± 0.43
318.15 K, x1 = 0.2083 | 1053.8 ± 1 | 9.09 ± 0.91
318.15 K, x1 = 0.3171 | 1058.2 ± 1 | 14 ± 1.4
318.15 K, x1 = 0.4126 | 1058.7 ± 1.1 | 19.7 ± 2
318.15 K, x1 = 0.481 | 1058.3 ± 1.1 | 23.6 ± 2.4
318.15 K, x1 = 0.5857 | 1057.5 ± 1.2 | 30.3 ± 3.1
318.15 K, x1 = 0.6728 | 1056.6 ± 1.4 | 38.4 ± 3.9
318.15 K, x1 = 0.766 | 1055 ± 1.5 | 51.4 ± 5.2
318.15 K, x1 = 0.8963 | 1053.7 ± 1.9 | 70.8 ± 7.2
323.15 K, x1 = 0.1008 | – | 3.87 ± 0.39
323.15 K, x1 = 0.2083 | – | 7.91 ± 0.79
323.15 K, x1 = 0.3171 | – | 11.6 ± 1.2
323.15 K, x1 = 0.4126 | – | 16 ± 1.6
323.15 K, x1 = 0.481 | – | 19.8 ± 2
323.15 K, x1 = 0.5857 | – | 26.2 ± 2.6
323.15 K, x1 = 0.6728 | – | 32.7 ± 3.3
323.15 K, x1 = 0.766 | – | 42.5 ± 4.3
323.15 K, x1 = 0.8963 | – | 58 ± 5.9
